# Laboratory results reported in patent publication US12371454B2, “Cyclic peptide compound having Kras inhibitory action” (priority 2019, dated 2025).
# Positions of bridges follow the written chain, without caps; N, C: chain ends. Non-standard residues stand in square brackets, D forms with d. Residues, ends and D or L forms follow the SMILES beside them. *: point of attachment. hPhe(3-Cl-4-CF3) = N[C@@H](CCc1ccc(C(F)(F)F)c(Cl)c1)C(=O)O; hPhe(4-CF3) = N[C@@H](CCc1ccc(C(F)(F)F)cc1)C(=O)O; Phe(2-OCF3) = N[C@@H](Cc1ccccc1OC(F)(F)F)C(=O)O; Phe(2-CF3) = N[C@@H](Cc1ccccc1C(F)(F)F)C(=O)O; NMePhe(4-Cl) = CN[C@@H](Cc1ccc(Cl)cc1)C(=O)O; NMePhe(4-Me) = CN[C@@H](Cc1ccc(C)cc1)C(=O)O; NMeGly(cPent) = CN[C@H](C(=O)O)C1CCCC1; Phe(3-I) = N[C@@H](Cc1cccc(I)c1)C(=O)O; NMeCha = CN[C@@H](CC1CCCCC1)C(=O)O; Azetidine(3,3-F2) = FC1(F)CN(*)C1; NMeChg = CN[C@H](C(=O)O)C1CCCCC1; NMeF = CN[C@@H](Cc1ccccc1)C(=O)O; NMeD = CN[C@@H](CC(=O)O)C(=O)O; NMeL = CN[C@@H](CC(C)C)C(=O)O; NMeNva = CCC[C@H](NC)C(=O)O; NMeV = CN[C@H](C(=O)O)C(C)C; d(β3hA) = C[C@@H](N)CC(=O)O; Pip = O=C(O)[C@@H]1CCCCN1; NMeA = CN[C@@H](C)C(=O)O; NMeAib = CNC(C)(C)C(=O)O; Piperidide = C1CCN(*)CC1; Pyrrolidide = C1CCN(*)C1; Ac5c = NC1(C(=O)O)CCCC1; Aze = O=C(O)[C@@H]1CCN1; Ac3c = NC1(C(=O)O)CC1; Isopentyl = CC(C)CC*; Sar = CNCC(=O)O
# Biological target: T1, Kras and SOS1 (biotin-tagged human Kras loaded with GDP, His-tagged human SOS1) (Homo sapiens, UniProt P01116, G12D)
# T1 construct: made in house; host or cells: E. coli (stated for Kras only)
# Test: Protein-protein interaction inhibition between Kras and SOS1 (KrasGl2D-SOS PPI) using AlphaScreen
# Format: binding
# Conditions: AlphaScreen; biotin-tagged human Kras loaded with GDP, His-tagged human SOS1; read-out: KRAS G12D-SOS PPI IC50
# Method in brief: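 Binding between SOS1 and Kras is detected as bead-proximity luminescence: illuminate Ni-conjugated donors (680 nm), collect 520-620 nm emission from streptavidin-conjugated acceptors; Kras carries biotin and GDP loaded after purification, SOS1 carries a His tag.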
# T1 sequence (P01116 1-188 isoform P01116-2 G12D): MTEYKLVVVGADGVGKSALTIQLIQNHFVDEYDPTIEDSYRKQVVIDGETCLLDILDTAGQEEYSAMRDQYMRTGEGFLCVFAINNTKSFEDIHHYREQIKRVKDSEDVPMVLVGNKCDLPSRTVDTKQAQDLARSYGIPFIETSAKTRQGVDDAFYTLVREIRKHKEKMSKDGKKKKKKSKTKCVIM
row,Compound,IC50 [nM]
1,CC[C@H](C)[C@@H]1NC(=O)[C@H](CC(C)C)N(C)C(=O)C[C@@H](C(=O)N2CCCCC2)N(C)C(=O)[C@H](C(C)C)NC(=O)C2(CCCC2)NC(=O)[C@@H]2CCCN2C(=O)[C@H](CCc2ccc(C(F)(F)F)c(Cl)c2)NC(=O)CN(C)C(=O)[C@H](CC2CCCCC2)N(C)C(=O)[C@@H]2CCN2C(=O)[C@H](C)N(C)C1=O [Compound 1106] ([NMeL]I[NMeA][Aze][NMeCha][Sar][hPhe(3-Cl-4-CF3)]P[Ac5c]V[NMeD]-Piperidide; lactam N-11),35
2,"CC[C@H](C)[C@@H]1NC(=O)[C@H](CC(C)C)N(C)C(=O)C[C@@H](C(=O)N(C)C)N(C)C(=O)[C@H](C2CCCC2)N(C)C(=O)[C@H](COC)NC(=O)[C@H](CC(=O)N2CC(F)(F)C2)N(C)C(=O)[C@H](CCc2ccc(C(F)(F)F)c(Cl)c2)NC(=O)CN(C)C(=O)[C@H](CC2CCCCC2)N(C)C(=O)[C@@H]2CCN2C(=O)[C@H](C)N(C)C1=O [Compound 1108] ([NMeL]I[NMeA][Aze][NMeCha][Sar][hPhe(3-Cl-4-CF3)][NMeD](Azetidine(3,3-F2))S(Me)[NMeGly(cPent)][NMeD]-NMe2; lactam N-11)",11
3,CC[C@H](C)[C@@H]1NC(=O)[C@@H]2CCCCN2C(=O)C[C@@H](C)NC(=O)[C@H](C(C)C)N(C)C(=O)[C@H](Cc2ccccc2)N(C)C(=O)[C@H](CC(C)C)N(C)C(=O)[C@H](CCc2ccc(C(F)(F)F)cc2)NC(=O)CN(C)C(=O)[C@H](Cc2ccc(Cl)cc2)N(C)C(=O)CN(C)C(=O)CN(C)C1=O [Compound 1110] (cyclo(I[Sar][Sar][NMePhe(4-Cl)][Sar][hPhe(4-CF3)][NMeL][NMeF][NMeV][d(β3hA)][Pip])),130
4,CC[C@H](C)[C@@H]1NC(=O)[C@H](CC(C)C)N(C)C(=O)C[C@@H](C)NC(=O)[C@H](C(C)C)N(C)C(=O)C2(CC2)NC(=O)[C@@H]2CCCN2C(=O)[C@H](CCc2ccc(C(F)(F)F)c(Cl)c2)NC(=O)CN(C)C(=O)[C@H](CC2CCCCC2)N(C)C(=O)CN(C)C(=O)CN(C)C1=O [Compound 1111] (cyclo([Ac3c][NMeV][d(β3hA)][NMeL]I[Sar][Sar][NMeCha][Sar][hPhe(3-Cl-4-CF3)]P)),41
5,CCC[C@H]1C(=O)NC2(CCCC2)C(=O)N(C)[C@@H](C2CCCCC2)C(=O)N(C)[C@H](C(=O)N2CCCCC2)CC(=O)N(C)[C@@H](CC(C)C)C(=O)N[C@@H]([C@@H](C)CC)C(=O)N(C)[C@@H](C)C(=O)N2CC[C@H]2C(=O)N(C)[C@@H](CC2CCCCC2)C(=O)N(C)CC(=O)N[C@@H](CCc2ccc(C(F)(F)F)c(Cl)c2)C(=O)N1C [Compound 1113] ([NMeL]I[NMeA][Aze][NMeCha][Sar][hPhe(3-Cl-4-CF3)][NMeNva][Ac5c][NMeChg][NMeD]-Piperidide; lactam N-11),410
6,CC[C@H](C)[C@@H]1NC(=O)[C@H](C)N(C)C(=O)C[C@@H](C(=O)N2CCCC2)NC(=O)[C@H](CC(C)C)N(C)C(=O)[C@H](Cc2ccccc2)N(C)C(=O)[C@H](COCCC(C)C)NC(=O)[C@H](CCc2ccc(C(F)(F)F)cc2)NC(=O)CN(C)C(=O)[C@H](Cc2ccc(Cl)cc2)N(C)C(=O)CN(C)C(=O)CN(C)C1=O [Compound 1119] ([NMeA]I[Sar][Sar][NMePhe(4-Cl)][Sar][hPhe(4-CF3)]S(Isopentyl)[NMeF][NMeL]D-Pyrrolidide; lactam N-11),180
7,CC[C@H](C)[C@@H]1NC(=O)[C@H](C)N(C)C(=O)C[C@@H](C(=O)N2CCCCC2)N(C)C(=O)[C@H](C(C)C)N(C)C(=O)C2(CCCC2)NC(=O)[C@@H]2CCCN2C(=O)[C@H](CCc2ccc(C(F)(F)F)c(Cl)c2)NC(=O)CN(C)C(=O)[C@H](CC2CCCCC2)N(C)C(=O)[C@@H]2CCCN2C(=O)CN(C)C1=O [Compound 1121] ([NMeA]I[Sar]P[NMeCha][Sar][hPhe(3-Cl-4-CF3)]P[Ac5c][NMeV][NMeD]-Piperidide; lactam N-11),1.4
8,CC[C@H](C)[C@@H]1NC(=O)[C@H](CC(C)C)N(C)C(=O)C[C@@H](C(=O)N2CCCCC2)N(C)C(=O)[C@H](CC(C)C)NC(=O)C(C)(C)N(C)C(=O)[C@H](Cc2ccccc2C(F)(F)F)NC(=O)[C@H](Cc2cccc(I)c2)NC(=O)CN(C)C(=O)[C@H](Cc2ccc(C)cc2)N(C)C(=O)CN(C)C(=O)CN(C)C1=O [Compound 1127] ([NMeL]I[Sar][Sar][NMePhe(4-Me)][Sar][Phe(3-I)][Phe(2-CF3)][NMeAib]L[NMeD]-Piperidide; lactam N-11),260
9,CC[C@H](C)[C@@H]1NC(=O)[C@H](CC(C)C)N(C)C(=O)C[C@@H](C(=O)N2CCCCC2)N(C)C(=O)[C@H](CC(C)C)NC(=O)C(C)(C)N(C)C(=O)[C@H](Cc2ccccc2OC(F)(F)F)NC(=O)[C@H](Cc2cccc(I)c2)NC(=O)CN(C)C(=O)[C@H](Cc2ccc(C)cc2)N(C)C(=O)[C@@H]2CCN2C(=O)[C@H](C)N(C)C1=O [Compound 1129] ([NMeL]I[NMeA][Aze][NMePhe(4-Me)][Sar][Phe(3-I)][Phe(2-OCF3)][NMeAib]L[NMeD]-Piperidide; lactam N-11),150
